Square brackets hold non-standard residues; d marks the D form. Ends that are not written are not given here.
Legend:
[1] = Immunization of rabbits with KLVFFA peptide, antibody titers; type: in vivo; settings: rabbits immunized, KLH-conjugated peptide, FIG. 7
Description: Rabbits were immunized with all-D or all-L KLVFFA.
Standard assays for fibrillogenesis were used to evaluate activity, such as those based on Thioflavine T, circular dichroism and solubility.
Rabbits were immunized with D- or L-Aβ (16-21) peptide. Antibodies raised were tested for their antifibrillogenic activities by ThT assay and by electron microscopy (EM).

[2] = system: transgenic mouse model of brain amyloidosis; settings: vaccinated transgenic mice; cited from earlier work

| Substance | production of antibodies (antibody titers) [1] | production of antibodies (antibody titers) ([1]; listed as Aβ 16-21 (all-D)) | formation of β-amyloid plaque, astrogliosis and neuritic dystrophy [2] |
| --- | --- | --- | --- |
| Aβ (16-21, all-D) ([dK][dL][dV][dF][dF][dA]) [all-D KLVFFA, KLVFFA] | causes production of antibodies | antibodies can be raised | – |
| human aggregated all-L peptide: human aggregated all-L Aβ peptide used as immunogen in the vaccine of Schenk et al. (1999) | – | – | prevented the formation of β-amyloid plaque, astrogliosis and neuritic dystrophy |

Reference: patent US20070264276A1, “Vaccine for the prevention and treatment of Alzheimer's and amyloid related diseases” (priority 1999, published 2007)
